Earlier results as cited in patent US11555007B2, “Compositions and methods for the treatment of neurological diseases” (Cellix Bio Private Limited, priority 2018, dated 2023).

Tested on: unipolar or bipolar patients in a major depressive episode
Conditions: intravenous ketamine 0.5 mg/kg versus saline; all 8 treated patients

CNC1(c2ccccc2Cl)CCCCC1=O (stereo not shown) [ketamine, 2-(2-chlorophenyl)-2-(methylamino)cyclohexan-1-one]
improvement in depressive symptoms: significant improvement in depressive symptoms
